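In this assay, cells in 96-well plates receive the compound at five concentrations for 48 hours. Endpoints are linearly interpolated between the surrounding concentrations. GI50 marks 50% less growth. TGI: total growth inhibition.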
Columns and labels:
Test in all cases: NCI anticancer screen, dose series, 48 h
[1] = test system: HT29 colon
[2] = test system: RPMI-8226 leukemia
[3] = test system: NCI-H522 lung
[4] = test system: RXF 393 renal
[5] = test system: SK-MEL-5 melanoma
[6] = test system: NCI/ADR-RES ovarian
[7] = test system: HCT-116 colon
[8] = test system: HCC-2998 colon
[9] = test system: UACC-257 melanoma
[10] = test system: SR leukemia

Row | SMILES | GI50 [1] | TGI [1] | GI50 [2] | TGI [2] | GI50 [3] | TGI [3] | GI50 [4] | TGI [4] | GI50 [5] | TGI [5] | GI50 [6] | TGI [6] | GI50 [7] | TGI [7] | GI50 [8] | TGI [8] | GI50 [9] | TGI [9] | GI50 [10] | TGI [10]
1 | CCCCOC(=O)c1ccc(N)cc1 | > 100 µM | > 100 µM | 67.2 µM | > 100 µM | 54.1 µM | > 100 µM | > 100 µM | > 100 µM | 27.8 µM | > 100 µM | 92.4 µM | > 100 µM | 90 µM | > 100 µM | 22.7 µM | 66.2 µM | 52.2 µM | > 100 µM | – | –
2 | NC(=NCc1ccccc1)C(N=Nc1ccccc1)C(=O)NCc1ccccc1 (centres undefined) | – | – | 9.31 µM | > 100 µM | – | – | 12.9 µM | 27 µM | 23.4 µM | 67.3 µM | 6.46 µM | 23.8 µM | 1.76 µM | 3.47 µM | 11.5 µM | 29.9 µM | 26.8 µM | 69.5 µM | – | –
3 | N#CC(/C(CCC(=O)Nc1ccc(Cl)cc1)=N/NC(=O)c1cc2ccccc2cc1O)c1ccccc1 (centres undefined) | – | > 100 µM | – | > 100 µM | – | – | – | > 100 µM | – | 40.6 µM | – | – | – | > 100 µM | – | > 100 µM | – | > 100 µM | – | –
4 | N.N.N.N.N.NC(=O)[O-].[Co+3].[I-] | > 100 µM | > 100 µM | > 100 µM | > 100 µM | > 100 µM | > 100 µM | – | – | > 100 µM | > 100 µM | – | – | > 100 µM | > 100 µM | > 100 µM | > 100 µM | > 100 µM | > 100 µM | – | –
5 | O=C1C(Cl)=C(Nc2ccc(Nc3ccccc3)c(NC3=C(Cl)C(=O)c4ccccc4C3=O)c2)C(=O)c2ccccc21 | 16.1 µM | > 100 µM | 3.33 µM | > 100 µM | – | – | 3.09 µM | 14.2 µM | 13.1 µM | 32 µM | 27.5 µM | > 100 µM | – | – | 6.71 µM | 41.2 µM | 6.12 µM | 33.7 µM | – | –
6 | CC(C)N(O)C(=N)c1ccccc1 | – | > 100 µM | – | – | – | > 100 µM | – | > 100 µM | – | > 100 µM | – | – | – | > 100 µM | – | > 100 µM | – | > 100 µM | – | –
7 | COc1cc(OC)c(C(=O)c2cccs2)cc1N | – | > 100 µM | – | > 100 µM | – | – | – | > 100 µM | – | > 100 µM | – | – | – | – | – | > 100 µM | – | > 100 µM | – | –
8 | CC(CC(=O)N1C(=O)C(C)(C)[C@@H](O)[C@H]1CC(C)C(Cl)(Cl)Cl)C(Cl)(Cl)Cl (some centres undefined) | – | > 100 µM | – | > 100 µM | – | > 100 µM | – | – | – | > 100 µM | – | – | – | > 100 µM | – | > 100 µM | – | > 100 µM | – | –
9 | CC1(C)S[C@@H]2[C@H](N3C(=O)c4ccccc4C3=O)CN2[C@H]1NC(=O)N[C@@H]1N2C[C@@H](N3C(=O)c4ccccc4C3=O)[C@H]2SC1(C)C | – | > 100 µM | – | > 100 µM | – | > 100 µM | – | 82.1 µM | – | > 100 µM | – | > 100 µM | – | > 100 µM | – | > 100 µM | – | – | – | –
10 | O=C/C1=C/C2=Cc3ccccc3C=C(/C=C(/C=O)C1)C2 | – | > 100 µM | – | > 100 µM | – | > 100 µM | – | 88.6 µM | – | > 100 µM | – | – | – | 48.3 µM | – | > 100 µM | – | > 100 µM | – | –
11 | CCC(=O)N1C(=O)OCC1C(C)C (centres undefined) | – | > 100 µM | – | > 100 µM | – | – | – | > 100 µM | – | > 100 µM | – | – | – | > 100 µM | – | > 100 µM | – | > 100 µM | – | –
12 | COc1cc2c(c(OC)c1OC)-c1ccc(O)cc1[C@@H](NC(C)=O)CC2 | 0.0339 µM | 0.141 µM | 0.0312 µM | – | 0.0242 µM | 0.097 µM | – | – | 0.0412 µM | 0.195 µM | 0.533 µM | 6.78 µM | 0.0395 µM | > 100 µM | 0.0465 µM | > 100 µM | > 68.3 µM | > 100 µM | 26.5 nM | –
13 | O=C1C(=O)N(c2ccc(Cl)cc2)C(=O)C(=O)C1c1nc2ccccc2o1 | – | > 100 µM | – | > 100 µM | – | > 100 µM | – | > 100 µM | – | > 100 µM | – | – | – | > 100 µM | – | > 100 µM | – | > 100 µM | – | –
14 | NCCc1ccc(S(=O)(=O)F)cc1 | > 100 µM | > 100 µM | – | – | 73.4 µM | > 100 µM | 37.8 µM | 98.2 µM | 59.1 µM | > 100 µM | > 100 µM | > 100 µM | 53.7 µM | > 100 µM | 39.1 µM | > 100 µM | > 100 µM | > 100 µM | – | –
15 | CCCCCCCCCCCCCCCC1=NCCN1 | 1.87 µM | 4.45 µM | – | – | – | – | 1.75 µM | 3.38 µM | 1.81 µM | 3.24 µM | 2.16 µM | 5.09 µM | – | – | 1.85 µM | 3.42 µM | 3.25 µM | 9.55 µM | 1840 nM | 4.31 µM
16 | O=S(=O)([O-])c1ccc(N=Cc2ccccc2[O-])cc1.O=S(=O)([O-])c1ccc(N=Cc2ccccc2[O-])cc1.[Co+2] | – | – | 96.8 µM | > 100 µM | – | – | > 100 µM | > 100 µM | – | – | – | – | – | – | 79.1 µM | > 100 µM | > 100 µM | > 100 µM | 30300 nM | > 100 µM
17 | COc1cc(/C=C(\NC(=O)c2ccccc2)c2nc3ccc4c(c3[nH]2)C(=O)c2ccccc2C4=O)cc(OC)c1OC | – | > 100 µM | – | > 100 µM | – | > 100 µM | – | 86.8 µM | – | > 100 µM | – | – | – | > 100 µM | – | > 100 µM | – | > 100 µM | – | –
18 | CN1CN(C2OC(CO)C(O)C2O)c2nc(N)[nH]c(=O)c21 (centres undefined) | – | > 100 µM | – | > 100 µM | – | 38.5 µM | – | > 100 µM | – | > 100 µM | – | – | – | > 100 µM | – | > 100 µM | – | > 100 µM | – | > 100 µM
19 | O=c1c2ccc(S(=O)(=O)c3ccc4c(=O)n5c6ccccc6nc5c5cccc3c45)c3cccc(c32)c2nc3ccccc3n12 | – | > 100 µM | – | > 100 µM | – | > 100 µM | – | 34.5 µM | – | > 100 µM | – | > 100 µM | – | > 100 µM | – | > 100 µM | – | > 100 µM | – | –
20 | O=C(O)[C@H](Cc1c[nH]c2ccccc12)N1C(=O)c2ccccc2C1=O | – | > 100 µM | – | > 100 µM | – | > 100 µM | – | > 100 µM | – | > 100 µM | – | > 100 µM | – | > 100 µM | – | > 100 µM | – | > 100 µM | – | –

From PubChem BioAssay (NCI)
